Test results published in PubChem BioAssay AID1963981 (Molecular Pharmacology Branch, DTP, NCI, 2024).

System: 354836-022-R-J1-PDC multicell spheroid viability
Assay: Anticancer human tumor 354836-022-R-J1-PDC patient-derived head and neck squamous cell carcinoma cell line growth inhibition [PI3K]
Settings: for IC50: curve of first compound; for viability, T/C: stronger effect = lower value
Outline: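 Tumor cells grown as multi-cell spheroids with HUVEC endothelial cells and MSC fibroblast-like stroma were treated with targeted agents combined with inavolisib, alpelisib, duvelisib or copanlisib. Doses fell in half-log steps from near clinical Cmax, else from 10 microM. Viability was measured.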

[1] = second compound 0.00316 µM, first compound 0.0316 µM
[2] = second compound 0.00316 µM, first compound 0.1 µM
[3] = second compound 0.00316 µM, first compound 0.316 µM
[4] = second compound 0.00316 µM, first compound 1 µM
[5] = second compound 0.00316 µM, first compound 3.16 µM
[6] = second compound 0.00316 µM, first compound 10 µM
[7] = second compound 0.01 µM, first compound 0.0316 µM
[8] = second compound 0.01 µM, first compound 0.1 µM
[9] = second compound 0.01 µM, first compound 0.316 µM
[10] = second compound 0.01 µM, first compound 1 µM
[11] = second compound 0.01 µM, first compound 3.16 µM
[12] = second compound 0.01 µM, first compound 10 µM
[13] = second compound 0.0316 µM, first compound 0.0316 µM
[14] = second compound 0.0316 µM, first compound 0.1 µM
[15] = second compound 0.0316 µM, first compound 0.316 µM
[16] = second compound 0.0316 µM, first compound 1 µM
[17] = second compound 0.0316 µM, first compound 3.16 µM
[18] = second compound 0.0316 µM, first compound 10 µM
[19] = second compound 0.1 µM, first compound 0.0316 µM
[20] = second compound 0.1 µM, first compound 0.1 µM
[21] = second compound 0.1 µM, first compound 0.316 µM
[22] = second compound 0.1 µM, first compound 1 µM
[23] = second compound 0.1 µM, first compound 3.16 µM
[24] = second compound 0.1 µM, first compound 10 µM
[25] = second compound 0.316 µM, first compound 0.0316 µM
[26] = second compound 0.316 µM, first compound 0.1 µM
[27] = second compound 0.316 µM, first compound 0.316 µM
[28] = second compound 0.316 µM, first compound 1 µM
[29] = second compound 0.316 µM, first compound 3.16 µM
[30] = second compound 0.316 µM, first compound 10 µM
[31] = second compound 1 µM, first compound 0.0316 µM
[32] = second compound 1 µM, first compound 0.1 µM
[33] = second compound 1 µM, first compound 0.316 µM
[34] = second compound 1 µM, first compound 1 µM
[35] = second compound 1 µM, first compound 3.16 µM
[36] = second compound 1 µM, first compound 10 µM
[37] = second compound 3.16 µM, first compound 0.0316 µM
[38] = second compound 3.16 µM, first compound 0.1 µM
[39] = second compound 3.16 µM, first compound 0.316 µM
[40] = second compound 3.16 µM, first compound 1 µM
[41] = second compound 3.16 µM, first compound 3.16 µM
[42] = second compound 3.16 µM, first compound 10 µM
[43] = second compound 10 µM, first compound 0.0316 µM
[44] = second compound 10 µM, first compound 0.1 µM
[45] = second compound 10 µM, first compound 0.316 µM
[46] = second compound 10 µM, first compound 1 µM
[47] = second compound 10 µM, first compound 3.16 µM
[48] = second compound 10 µM, first compound 10 µM
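Note: spheroids exposed to agents for seven days before the viability read.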

Compound: C#Cc1c(F)ccc2cc(O)cc(-c3ncc4c(N5CC6CCC(C5)N6)nc(OCC56CCCN5CC(F)C6)nc4c3F)c12 (stereo not given) + COc1c(OCCCN2CCOCC2)ccc2c3n(c(=NC(=O)c4cnc(N)nc4)nc12)CCN3
- IC50 (second compound 0.00316 µM): > 10 µM
- IC50 (second compound 0.01 µM): > 10 µM
- IC50 (second compound 0.0316 µM): > 10 µM
- IC50 (second compound 0.1 µM): 0.516 µM
- IC50 (second compound 0.316 µM): < 0.0316 µM
- IC50 (second compound 1 µM): < 0.0316 µM
- viability, T/C [1]: 113%
- viability, T/C [2]: 102%
- viability, T/C [3]: 107%
- viability, T/C [4]: 108%
- viability, T/C [5]: 111%
- viability, T/C [6]: 92.8%
- viability, T/C [7]: 98%
- viability, T/C [8]: 99%
- viability, T/C [9]: 96.3%
- viability, T/C [10]: 116%
- viability, T/C [11]: 92%
- viability, T/C [12]: 101%
- viability, T/C [13]: 79.4%
- viability, T/C [14]: 84.2%
- viability, T/C [15]: 96.4%
- viability, T/C [16]: 89.7%
- viability, T/C [17]: 74.1%
- viability, T/C [18]: 77.1%
- viability, T/C [19]: 56.1%
- viability, T/C [20]: 67.8%
- viability, T/C [21]: 52.9%
- viability, T/C [22]: 47.1%
- viability, T/C [23]: 45.6%
- viability, T/C [24]: 45.4%
- viability, T/C [25]: 14.6%
- viability, T/C [26]: 14%
- viability, T/C [27]: 12.9%
- viability, T/C [28]: 14.6%
- viability, T/C [29]: 11.4%
- viability, T/C [30]: 3.3%
- viability, T/C [31]: 2.48%
- viability, T/C [32]: 2.22%
- viability, T/C [33]: 1.66%
- viability, T/C [34]: 1.78%
- viability, T/C [35]: 1.73%
- viability, T/C [36]: 0.66%

Compound: CC1(C)CCC(Nc2ncc(C(F)(F)F)c(-c3c[nH]c4c(P(C)(C)=O)c(C#N)ccc34)n2)CN1 (stereo not given) + CC(Nc1ncnc2nc[nH]c12)c1cc2cccc(Cl)c2c(=O)n1-c1ccccc1
- IC50 (second compound 0.0316 µM): < 0.0316 µM
- IC50 (second compound 0.1 µM): < 0.0316 µM
- IC50 (second compound 0.316 µM): < 0.0316 µM
- IC50 (second compound 1 µM): < 0.0316 µM
- IC50 (second compound 3.16 µM): < 0.0316 µM
- IC50 (second compound 10 µM): < 0.0316 µM
- viability, T/C [13]: 13.4%
- viability, T/C [14]: 10.9%
- viability, T/C [15]: 15.2%
- viability, T/C [16]: 12.4%
- viability, T/C [17]: 13.8%
- viability, T/C [18]: 1.65%
- viability, T/C [19]: 12.6%
- viability, T/C [20]: 13.2%
- viability, T/C [21]: 15.7%
- viability, T/C [22]: 16%
- viability, T/C [23]: 16.1%
- viability, T/C [24]: 2.44%
- viability, T/C [25]: 11.3%
- viability, T/C [26]: 13.9%
- viability, T/C [27]: 12.4%
- viability, T/C [28]: 14.8%
- viability, T/C [29]: 14%
- viability, T/C [30]: 2.31%
- viability, T/C [31]: 12.3%
- viability, T/C [32]: 13.2%
- viability, T/C [33]: 14%
- viability, T/C [34]: 14.3%
- viability, T/C [35]: 16.8%
- viability, T/C [36]: 1.85%
- viability, T/C [37]: 10.7%
- viability, T/C [38]: 13.8%
- viability, T/C [39]: 13.7%
- viability, T/C [40]: 15%
- viability, T/C [41]: 16%
- viability, T/C [42]: 1.2%
- viability, T/C [43]: 17%
- viability, T/C [44]: 16.9%
- viability, T/C [45]: 14.9%
- viability, T/C [46]: 21.3%
- viability, T/C [47]: 16.8%
- viability, T/C [48]: 0.91%

Compound: CC1(C)CCC(CN2CCN(c3ccc(C(=O)NS(=O)(=O)c4ccc(NCC5CCOCC5)c([N+](=O)[O-])c4)c(Oc4cnc5[nH]ccc5c4)c3)CC2)=C(c2ccc(Cl)cc2)C1 + COc1c(OCCCN2CCOCC2)ccc2c3n(c(=NC(=O)c4cnc(N)nc4)nc12)CCN3
- IC50 (second compound 0.00316 µM): 4.46 µM
- IC50 (second compound 0.01 µM): 3.75 µM
- IC50 (second compound 0.0316 µM): 3.73 µM
- IC50 (second compound 0.1 µM): 1.75 µM
- IC50 (second compound 0.316 µM): < 0.0316 µM
- IC50 (second compound 1 µM): < 0.0316 µM
- viability, T/C [1]: 85.4%
- viability, T/C [2]: 97.5%
- viability, T/C [3]: 97%
- viability, T/C [4]: 96.5%
- viability, T/C [5]: 69.2%
- viability, T/C [6]: 5.16%
- viability, T/C [7]: 92.6%
- viability, T/C [8]: 87.3%
- viability, T/C [9]: 95%
- viability, T/C [10]: 95.5%
- viability, T/C [11]: 58%
- viability, T/C [12]: 4.01%
- viability, T/C [13]: 69%
- viability, T/C [14]: 76.2%
- viability, T/C [15]: 78.8%
- viability, T/C [16]: 79%
- viability, T/C [17]: 58%
- viability, T/C [18]: 3.73%
- viability, T/C [19]: 58.9%
- viability, T/C [20]: 50.6%
- viability, T/C [21]: 49%
- viability, T/C [22]: 61.7%
- viability, T/C [23]: 44.6%
- viability, T/C [24]: 2.56%
- viability, T/C [25]: 12.8%
- viability, T/C [26]: 12.5%
- viability, T/C [27]: 13.7%
- viability, T/C [28]: 14.3%
- viability, T/C [29]: 7.93%
- viability, T/C [30]: 1.71%
- viability, T/C [31]: 1.99%
- viability, T/C [32]: 1.2%
- viability, T/C [33]: 1.79%
- viability, T/C [34]: 1.5%
- viability, T/C [35]: 1.66%
- viability, T/C [36]: 0.72%

Compound: CNC(=O)c1ccc(N2C(=S)N(c3ccc(C#N)c(C(F)(F)F)c3)C(=O)C2(C)C)cc1F + COc1c(OCCCN2CCOCC2)ccc2c3n(c(=NC(=O)c4cnc(N)nc4)nc12)CCN3
- IC50 (second compound 0.00316 µM): > 10 µM
- IC50 (second compound 0.01 µM): > 10 µM
- IC50 (second compound 0.0316 µM): > 10 µM
- IC50 (second compound 0.1 µM): < 0.0316 µM
- IC50 (second compound 0.316 µM): < 0.0316 µM
- IC50 (second compound 1 µM): < 0.0316 µM
- viability, T/C [1]: 93.6%
- viability, T/C [2]: 102%
- viability, T/C [3]: 101%
- viability, T/C [4]: 107%
- viability, T/C [5]: 124%
- viability, T/C [6]: 93.2%
- viability, T/C [7]: 97.3%
- viability, T/C [8]: 92.8%
- viability, T/C [9]: 92.7%
- viability, T/C [10]: 97.7%
- viability, T/C [11]: 102%
- viability, T/C [12]: 108%
- viability, T/C [13]: 78.1%
- viability, T/C [14]: 80%
- viability, T/C [15]: 81.8%
- viability, T/C [16]: 83.7%
- viability, T/C [17]: 80.4%
- viability, T/C [18]: 77%
- viability, T/C [19]: 47.8%
- viability, T/C [20]: 50.8%
- viability, T/C [21]: 57.1%
- viability, T/C [22]: 49.2%
- viability, T/C [23]: 58.4%
- viability, T/C [24]: 49.9%
- viability, T/C [25]: 16.4%
- viability, T/C [26]: 18.1%
- viability, T/C [27]: 13.4%
- viability, T/C [28]: 10.8%
- viability, T/C [29]: 14.5%
- viability, T/C [30]: 12.6%
- viability, T/C [31]: 1.3%
- viability, T/C [32]: 1.27%
- viability, T/C [33]: 1.65%
- viability, T/C [34]: 1.63%
- viability, T/C [35]: 1.96%
- viability, T/C [36]: 0.99%

Compound: C=CC(=O)N1CCN(c2nc(=O)n(-c3c(C)ccnc3C(C)C)c3nc(-c4c(O)cccc4F)c(F)cc23)C(C)C1 (stereo not given) + CC(Nc1ncnc2nc[nH]c12)c1cc2cccc(Cl)c2c(=O)n1-c1ccccc1
- IC50 (second compound 0.0316 µM): > 10 µM
- IC50 (second compound 0.1 µM): > 10 µM
- IC50 (second compound 0.316 µM): > 10 µM
- IC50 (second compound 1 µM): > 10 µM
- IC50 (second compound 3.16 µM): > 10 µM
- IC50 (second compound 10 µM): > 10 µM
- viability, T/C [13]: 93.1%
- viability, T/C [14]: 84.5%
- viability, T/C [15]: 103%
- viability, T/C [16]: 103%
- viability, T/C [17]: 98.7%
- viability, T/C [18]: 94.1%
- viability, T/C [19]: 98.7%
- viability, T/C [20]: 94.5%
- viability, T/C [21]: 96.4%
- viability, T/C [22]: 115%
- viability, T/C [23]: 108%
- viability, T/C [24]: 95.5%
- viability, T/C [25]: 110%
- viability, T/C [26]: 106%
- viability, T/C [27]: 103%
- viability, T/C [28]: 116%
- viability, T/C [29]: 106%
- viability, T/C [30]: 88.1%
- viability, T/C [31]: 103%
- viability, T/C [32]: 98.4%
- viability, T/C [33]: 108%
- viability, T/C [34]: 102%
- viability, T/C [35]: 98.7%
- viability, T/C [36]: 97.7%
- viability, T/C [37]: 96%
- viability, T/C [38]: 114%
- viability, T/C [39]: 106%
- viability, T/C [40]: 115%
- viability, T/C [41]: 115%
- viability, T/C [42]: 93.2%
- viability, T/C [43]: 98%
- viability, T/C [44]: 89.4%
- viability, T/C [45]: 90.1%
- viability, T/C [46]: 99.2%
- viability, T/C [47]: 102%
- viability, T/C [48]: 88.1%
